Source: patent publication US9095534B2, “Intermittent dosing of nitric oxide gas” (SENSORMEDICS CORPORATION, priority 2004, dated 2015)

Columns and labels:
[1] = test system: mycothiol in wild type M. smegmatis; test: Mycothiol level by HPLC after exposure to NO gas; assay type: cell-based, Mycobacterium smegmatis; conditions: 400 ppm NO gas, compared to exposure to air, FIG. 11
Method: Further experiments were conducted to assay and measure the mycothiol level using HPLC in wild type M. smegmatis after exposure to 400 ppm NO gas and were compared to mycothiol level after exposure to air.

[2] = test system: mycothiol-deficient Mycobacterium smegmatis Mutant MshA; test: Survival of mycothiol-deficient mutant versus wild type on exposure to NO gas; assay type: cell-based; conditions: 200 ppm NO gas; FIG. 10
Method: (§1) Additional studies were performed to test the hypothesis that the effect of NO gas in killing microorganisms is related to thiol function. […] This may be due to Mycobacteria having an exceptional thiol, mycothiol, that maintains the redox balance in the cell and protects the cell from nitrosative and oxidative stress. In order to test this hypothesis, sensitivities to NO gas was compared between mycothiol-deficient Mycobacterium smegmatis Mutant MshA to its wild type counterpart, mc^2155 by exposing both strains to 200 ppm of NO gas. MshA is an enzyme needed in mycothiol biosynthesis.

Mycobacteria = test: Sensitivity of various microorganisms to NO gas damage; assay type: cell-based; conditions: relative to other microorganisms studied
Method: as §1

E. coli = test: Survival of bacteria under cycled high/low NO gas exposure (cfu/ml); assay type: cell-based; conditions: 160 ppm for 30 minutes then 20 ppm for 3.5 hours, cycled every 4 hours for 24 hours; compared to air; FIG. 9
Method: (§2) The effectiveness of the intermittent nigh dose delivery of […] oxide gas in combating microorganisms was tested and verified. Briefly, the experimental methods were as follows. Inoculums of varying bacteria was prepared to a suspension of 2.5×10^8 cfu/ml, and diluted 1:1000 in sterile normal saline. Three milliliters of the inoculums were used per well in a sterile culture place. Exposure of the inoculums were performed in an exposure chamber, which has been described for example, in Gliafarri, A. et al., “A direct nitric oxide gas delivery system for bacterial and mammalian cell cultures,” Nitric Oxide. 12(3):129-40 (May 2005), which is hereby incorporated by reference as if fully set forth herein. The inoculums were exposed to 160 ppm of NO gas at a flow rate of 2.5 liters per minute for 30 minutes followed by exposure to 20 ppm of NO gas for 3.5 hours. The exposure to high and low concentrations of NO gas was repeatedly cycled every 4 hours for 24 hours. At various times (e.g., 0, 4, 8, and 12 hours), samples were taken and plated to determine the survivability of the bacteria as determined by counting cfu/ml.

[3] = test system: P. aeruginosa (ATCC #27853); test: as above; assay type: cell-based; conditions: 160 ppm for 30 minutes then 20 ppm for 3.5 hours, cycled every 4 hours for 24 hours; compared to air; FIG. 7
Method: as §2

S. aureus (ATCC #25923) = test: as above; assay type: cell-based; conditions: 160 ppm for 30 minutes then 20 ppm for 3.5 hours, cycled every 4 hours for 24 hours; compared to air; FIG. 6
Method: as §2

[4] = test system: P. aeruginosa (clinical strain from Cystic Fibrosis); test: as above; assay type: cell-based; conditions: 160 ppm for 30 minutes then 20 ppm for 3.5 hours, cycled every 4 hours for 24 hours; compared to air; FIG. 8
Method: as §2

[N]=O [nitric oxide]
level of mycothiol in wild type M. smegmatis [1]: reduced compared to exposure to air
sensitivity of MshA mutant to NO gas versus wild type mc^2155 [2]: more sensitive to NO gas than its wild type counterpart
time to kill MshA mutant versus wild type mc^2155 [2]: killed in less time than its wild type counterpart
sensitivity of Mycobacteria to NO gas damage (Mycobacteria): less sensitive to NO gas damage
survival of E. coli (E. coli): effective method of killing the bacteria
survival of P. aeruginosa (ATCC #27853) [3]: effective method of killing the bacteria
survival of S. aureus (ATCC #25923) (S. aureus (ATCC #25923)): effective method of killing the bacteria
survival of P. aeruginosa (clinical strain from Cystic Fibrosis) [4]: effective method of killing the bacteria
